Laboratory results from patent publication US7384927B2, “Alkylated porphyrins as pesticides acting both in the presence and absence of light” (priority 2003, dated 2008).

Columns and labels:
Format in all cases: in vivo
[1] = tested on: Bactrocera oleae (olive fly); assay: Uptake of alkylated porphyrins by flies fed porphyrin-containing bait; conditions: B. oleae
Protocol: (§1) Porphyrins: • a) meso[tri(N-methyl-pyridyl), mono(N-dodecyl-pyridyl)]porphine (abbr.: C12) • b) meso[tri(N-methyl-pyridyl), mono(N-tetradecyl-pyridyl)]porphine (abbr.: C14) • c) meso[tri(N-methyl-pyridyl), mono(N-octadecyl-pyridyl)]porphine (abbr.: C18) Bait: Aqueous solution containing 10% sucrose and 1% autolysed yeast Flies: • a) Ceratitis capitata (fruit fly) age: 1 week; weight: 5-6 mg • b) Bactrocera oleae (olive fly) age: 10 days; weight: 4-4.5 mg • c) Stomoxis calcitrans (stable fly) age: 10 days; weight: 12 mg Irradiation: • a) High pressure halogen lamp, equipped with infrared and UV filters, emission 360-850 nm, operated at intensities in the 760-2,000 μE s^−1m^−2 range • b) Sunlight, mid June at Padua latitude, average intensity of […] μE s^−1m^−2 with minimum and maximum values of 950 and, respectively, 1,380 μE s^−1m^−2
(§2) An appropriate number of flies (50 flies per each experiment) was caged in 115×55×70 mm Plexiglas cages with several holes (ø=0.5 mm) and starved for 36 h. Then, depending on the protocol to be adopted for each specific experiment, the flies were fed with the bait (10% sucrose and 1% autolysed yeast in neutral aqueous solution), which was either porphyrin-free or added with a predetermined concentration of the porphyrin. These flies were then used in the various experimental sessions.
(§3) At predetermined times, the flies were sacrificed by freezing; the dead flies were then homogenized with a Polytron in 10 ml of a 2% aqueous solution of sodium dodecylsulphate (SDS). The suspension was centrifuged for 10 min at 2,000 rpm, the pellet was discarded and known aliquots of the supernatant were diluted by means of a chloroform/methanol binary mixture (1/2, v/v). The porphyrin concentration was measured by reading the fluorescence emitted at wavelengths above 630 nm and interpolating the emission intensity with a calibration plot obtained with known amounts of the porphyrin. The results were expressed as nanomoles of porphyrin recovered per fly.

[2] = tested on: Ceratitis capitata (fruit fly); assay: as above; conditions: C. capitata
Protocol: as §1, §2, §3

[3] = tested on: Stomoxis calcitrans (stable fly); assay: as above; conditions: S. calcitrans
Protocol: as §1, §2, §3

[4] = tested on: Bactrocera oleae (olive fly); assay: Release of alkylated porphyrin from flies after feeding with bait interrupted; conditions: B. oleae, 1.25 μM porphyrin in the bait
Protocol: as §2, §3

[5] = tested on: Ceratitis capitata (fruit fly); assay: as above; conditions: C. capitata, 1.25 μM porphyrin in the bait
Protocol: as §2, §3

[6] = tested on: Stomoxis calcitrans (stable fly); assay: as above; conditions: S. calcitrans, 1.25 μM porphyrin in the bait
Protocol: as §2, §3

Bactrocera oleae flies = assay: Insecticidal action in the dark: fly survival after porphyrin bait; conditions: fed 24 h, survival 12 h after change to porphyrin-free bait
Protocol: (§4) These flies were then used in the various experimental sessions. […] The number of survivors was evaluated 12 h after switching from administration of a porphyrin-containing bait to a porphyrin-free bait. In none of the experiments was mortality or any apparent toxic effect observed in control flies (flies not fed with porphyrin, see survival at 0 μM porphyrin concentration).

[7] = tested on: Stomoxis calcitrans flies; assay: as above; conditions: fed 24 h, survival 12 h after change to porphyrin-free bait
Protocol: as §4

Ceratitis capitata flies [8] = assay: Photoinsecticidal action: fly survival after bait and visible light irradiation (artificial lamp); conditions: survival 10 h after irradiation
Protocol: as §1
The irradiations were performed for 1 h, then the flies were kept in dim light for monitoring the survival. Control flies were irradiated under identical conditions after feeding with a porphyrin-free bait.
The irradiations were performed for 1 h at a fluence-rate of 1220 μE s^−1m^−2. The survival was evaluated 10 h after the end of irradiation. […] The porphyrins are abbreviated as following: HP: haematoporphyrin; C1: meso-tetra(N-methyl-pyridyl)porphine.
The survival was evaluated 10 h after the end of irradiation.
as §2, with “sessions. […]” for “sessions.”

Ceratitis capitata flies [9] = assay: Photoinsecticidal action: fly survival after bait and sunlight irradiation; conditions: 3 μM in bait, 12 h after feeding, survival 1 h after irradiation
Protocol: as §1
The survival was evaluated 1 h after the end of irradiation.
as §2

[10] = exposure time to bait 3 h, porphyrin in bait 1.24 μM
[11] = exposure time to bait 12 h, porphyrin in bait 1.24 μM
[12] = exposure time to bait 24 h, porphyrin in bait 1.24 μM
[13] = porphyrin concentration in bait 0.75 (μmoles), feeding 24 h
[14] = porphyrin concentration in bait 1.25 (μmoles), feeding 24 h
[15] = porphyrin concentration in bait 2.10 (μmoles), feeding 24 h
[16] = porphyrin concentration in bait 3.50 (μmoles), feeding 24 h
[17] = porphyrin concentration in bait 6.00 (μmoles), feeding 24 h

Compound: CCCCCCCCCCCC[n+]1ccc(-c2c3nc(c(-c4cc[n+](C)cc4)c4ccc([nH]4)c(-c4cc[n+](C)cc4)c4nc(c(-c5cc[n+](C)cc5)c5ccc2[nH]5)C=C4)C=C3)cc1 [C12, meso[tri(N-methyl-pyridyl), mono(N-dodecyl-pyridyl)]porphine]
- Recoveries (nmoles of porphyrin per fly) [1, 10]: 0.8 nmoles of porphyrin per fly
- Recoveries (nmoles of porphyrin per fly) [1, 11]: 2.6 nmoles of porphyrin per fly
- Recoveries (nmoles of porphyrin per fly) [1, 12]: 3.2 nmoles of porphyrin per fly
- Recoveries (nmoles of porphyrin per fly) [1, 13]: 2.7 nmoles of porphyrin per fly
- Recoveries (nmoles of porphyrin per fly) [1, 14]: 3.2 nmoles of porphyrin per fly
- Recoveries (nmoles of porphyrin per fly) [1, 15]: 6.5 nmoles of porphyrin per fly
- Recoveries (nmoles of porphyrin per fly) [1, 16]: 9.3 nmoles of porphyrin per fly
- Recoveries (nmoles of porphyrin per fly) [1, 17]: 10.6 nmoles of porphyrin per fly
- Recoveries (nmoles of porphyrin per fly) [2, 10]: 1.2 nmoles of porphyrin per fly
- Recoveries (nmoles of porphyrin per fly) [2, 11]: 3.9 nmoles of porphyrin per fly
- Recoveries (nmoles of porphyrin per fly) [2, 12]: 4.1 nmoles of porphyrin per fly
- Recoveries (nmoles of porphyrin per fly) [2, 13]: 2.9 nmoles of porphyrin per fly
- Recoveries (nmoles of porphyrin per fly) [2, 14]: 4.1 nmoles of porphyrin per fly
- Recoveries (nmoles of porphyrin per fly) [2, 15]: 7.3 nmoles of porphyrin per fly
- Recoveries (nmoles of porphyrin per fly) [2, 16]: 9.1 nmoles of porphyrin per fly
- Recoveries (nmoles of porphyrin per fly) [2, 17]: 12.5 nmoles of porphyrin per fly
- Recoveries (nmoles of porphyrin per fly) [3, 10]: 1.4 nmoles of porphyrin per fly
- Recoveries (nmoles of porphyrin per fly) [3, 11]: 3.2 nmoles of porphyrin per fly
- Recoveries (nmoles of porphyrin per fly) [3, 12]: 3.7 nmoles of porphyrin per fly
- Recoveries (nmoles of porphyrin per fly) [3, 13]: 2.5 nmoles of porphyrin per fly
- Recoveries (nmoles of porphyrin per fly) [3, 14]: 3.7 nmoles of porphyrin per fly
- Recoveries (nmoles of porphyrin per fly) [3, 15]: 6.0 nmoles of porphyrin per fly
- Recoveries (nmoles of porphyrin per fly) [3, 16]: 9.0 nmoles of porphyrin per fly
- Recoveries (nmoles of porphyrin per fly) [3, 17]: 9.7 nmoles of porphyrin per fly
- Recoveries (nmoles of porphyrin per fly), release ([4]; 12 h after feeding interrupted): 2.5 nmoles of porphyrin per fly
- Recoveries (nmoles of porphyrin per fly), release ([4]; 24 h after feeding interrupted): 1.4 nmoles of porphyrin per fly
- Recoveries (nmoles of porphyrin per fly), release ([4]; 48 h after feeding interrupted): 0.8 nmoles of porphyrin per fly
- Recoveries (nmoles of porphyrin per fly), release ([5]; 12 h after feeding interrupted): 2.6 nmoles of porphyrin per fly
- Recoveries (nmoles of porphyrin per fly), release ([5]; 24 h after feeding interrupted): 1.1 nmoles of porphyrin per fly
- Recoveries (nmoles of porphyrin per fly), release ([5]; 48 h after feeding interrupted): 0.7 nmoles of porphyrin per fly
- Recoveries (nmoles of porphyrin per fly), release ([6]; 12 h after feeding interrupted): 2.8 nmoles of porphyrin per fly
- Recoveries (nmoles of porphyrin per fly), release ([6]; 24 h after feeding interrupted): 2.0 nmoles of porphyrin per fly
- Recoveries (nmoles of porphyrin per fly), release ([6]; 48 h after feeding interrupted): 0.9 nmoles of porphyrin per fly
- Survival (% of control untreated flies) (Bactrocera oleae flies; 0.75 μM in bait): 100 % of control untreated flies
- Survival (% of control untreated flies) (Bactrocera oleae flies; 1.25 μM in bait): 100 % of control untreated flies
- Survival (% of control untreated flies) (Bactrocera oleae flies; 2.10 μM in bait): 85 % of control untreated flies
- Survival (% of control untreated flies) (Bactrocera oleae flies; 3.00 μM in bait): 72 % of control untreated flies
- Survival (% of control untreated flies) (Bactrocera oleae flies; 5.00 μM in bait): 58 % of control untreated flies
- Survival (% of control untreated flies) (Bactrocera oleae flies; 8.10 μM in bait): 51 % of control untreated flies
- Survival (% of control untreated flies) ([7]; 0.75 μM in bait): 100 % of control untreated flies
- Survival (% of control untreated flies) ([7]; 1.25 μM in bait): 82 % of control untreated flies
- Survival (% of control untreated flies) ([7]; 2.10 μM in bait): 64 % of control untreated flies
- Survival (% of control untreated flies) ([7]; 3.00 μM in bait): 47 % of control untreated flies
- Survival (% of control untreated flies) ([7]; 5.00 μM in bait): 29 % of control untreated flies
- Survival (% of control untreated flies) ([7]; 8.10 μM in bait): 16 % of control untreated flies
- Survival (% of control untreated flies) (Ceratitis capitata flies [8]; 3 μM in bait 24 h, time interval feeding-irradiation 0 h, irradiation 1 h at 1220 μE s^−1m^−2): 4 % of control untreated flies
- Survival (% of control untreated flies) (Ceratitis capitata flies [8]; 3 μM in bait 24 h, time interval feeding-irradiation 12 h, irradiation 1 h at 1220 μE s^−1m^−2): 8 % of control untreated flies
- Survival (% of control untreated flies) (Ceratitis capitata flies [8]; 3 μM in bait 24 h, time interval feeding-irradiation 24 h, irradiation 1 h at 1220 μE s^−1m^−2): 23 % of control untreated flies
- Survival (% of control untreated flies) (Ceratitis capitata flies [8]; 3 μM in bait 24 h, time interval feeding-irradiation 48 h, irradiation 1 h at 1220 μE s^−1m^−2): 37 % of control untreated flies
- Survival (% of control untreated flies) (Ceratitis capitata flies [8]; 3 μM in bait, fluence-rate 760 μE s^−1m^−2, irradiated 24 h after feeding (title)): 13 % of control untreated flies
- Survival (% of control untreated flies) (Ceratitis capitata flies [8]; 3 μM in bait, fluence-rate 1220 μE s^−1m^−2, irradiated 24 h after feeding (title)): 4 % of control untreated flies
- Survival (% of control untreated flies) (Ceratitis capitata flies [8]; 3 μM in bait, fluence-rate 1500 μE s^−1m^−2, irradiated 24 h after feeding (title)): 2 % of control untreated flies
- Survival (% of control untreated flies) (Ceratitis capitata flies [8]; 3 μM in bait, fluence-rate 2000 μE s^−1m^−2, irradiated 24 h after feeding (title)): 0 % of control untreated flies
- Survival (% of control untreated flies) (Ceratitis capitata flies [9]; sunlight (average 1150 μE s^−1m^−2) 15 min): 33 % of control untreated flies
- Survival (% of control untreated flies) (Ceratitis capitata flies [9]; sunlight (average 1150 μE s^−1m^−2) 30 min): 17 % of control untreated flies
- Survival (% of control untreated flies) (Ceratitis capitata flies [9]; sunlight (average 1150 μE s^−1m^−2) 45 min): 10 % of control untreated flies
- Survival (% of control untreated flies) (Ceratitis capitata flies [9]; sunlight (average 1150 μE s^−1m^−2) 60 min): 2 % of control untreated flies
